According to ChEMBL document CHEMBL6120968, “Discovery of Thiadiazoleamide Derivatives as Potent, Selective, and Orally Available Antagonists Disrupting Androgen Receptor Homodimer” (J Med Chem, 2024):

Tests used:
Androgen receptor [1] = target: Androgen receptor (Homo sapiens, UniProt P10275, F877L); assay: Antagonist activity at Androgen receptor F877L mutant in human HEK293T cells cotransfected with MMTV-luc and renilla plasmid incubated for 24 hrs by Dual luciferase assay; format: cell-based
Sequence of Androgen receptor (Homo sapiens, UniProt P10275, F877L) (P10275 whole entry F877L): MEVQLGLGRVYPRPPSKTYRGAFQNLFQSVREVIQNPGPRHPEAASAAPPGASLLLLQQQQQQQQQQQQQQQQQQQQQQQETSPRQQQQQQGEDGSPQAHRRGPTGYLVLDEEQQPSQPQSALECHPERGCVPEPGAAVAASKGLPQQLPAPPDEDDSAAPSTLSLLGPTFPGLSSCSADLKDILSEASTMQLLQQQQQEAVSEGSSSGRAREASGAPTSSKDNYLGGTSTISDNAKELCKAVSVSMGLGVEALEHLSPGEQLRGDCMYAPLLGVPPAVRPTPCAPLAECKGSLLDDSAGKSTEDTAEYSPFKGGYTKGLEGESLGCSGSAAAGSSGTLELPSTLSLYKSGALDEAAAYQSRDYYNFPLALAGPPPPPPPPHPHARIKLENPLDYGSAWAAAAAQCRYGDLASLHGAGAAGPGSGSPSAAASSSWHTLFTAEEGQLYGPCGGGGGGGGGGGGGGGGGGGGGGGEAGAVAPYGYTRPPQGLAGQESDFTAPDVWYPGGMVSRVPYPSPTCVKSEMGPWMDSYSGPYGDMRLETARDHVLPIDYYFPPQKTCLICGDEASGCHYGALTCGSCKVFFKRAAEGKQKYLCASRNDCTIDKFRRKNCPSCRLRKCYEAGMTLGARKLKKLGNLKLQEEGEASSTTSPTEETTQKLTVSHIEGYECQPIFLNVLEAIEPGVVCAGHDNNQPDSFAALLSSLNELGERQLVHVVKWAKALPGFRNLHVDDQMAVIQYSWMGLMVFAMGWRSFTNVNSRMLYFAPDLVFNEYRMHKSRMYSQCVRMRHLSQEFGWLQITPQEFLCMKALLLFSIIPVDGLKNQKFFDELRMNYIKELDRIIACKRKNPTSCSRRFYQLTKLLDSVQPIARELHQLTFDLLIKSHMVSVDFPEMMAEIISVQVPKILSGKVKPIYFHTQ

Androgen receptor [2] = target: Androgen receptor (Homo sapiens, UniProt P10275, W742C); assay: Antagonist activity at Androgen receptor W742C mutant in human HEK293T cells cotransfected with MMTV-luc and renilla plasmid incubated for 24 hrs by Dual luciferase assay; format: cell-based
Sequence of Androgen receptor (Homo sapiens, UniProt P10275, W742C) (P10275 whole entry W742C): as the sequence (P10275 whole entry F877L) above, with W742C, L877F counted along it

Cc1oc(-c2cccc(C(F)(F)F)c2)cc1C(=O)Nc1nc(CN2CCOCC2)ns1 was tested, and the IC50 (Androgen receptor [1]) was 10 nM and the IC50 (Androgen receptor [2]) was 240 nM.
